pIC50: −log10 of the molar value.
Legend:
KAT6A = target: T1, KAT6A (Homo sapiens, UniProt Q92794); test: Kat6a activity assay (TR-FRET, acetylation of biotinylated histone H4 peptide); format: biochemical; details: recombinant human His-tagged Kat6a (amino acids 194-810), 60 mins at 22° C., read-out: KAT6A-DPF/HAT domain IC50 [mol/l] (arithmetic mean)
T1 construct: Recombinant human His-tagged Kat6a protein (amino acids 194-810); His; made in house; host or cells: Baculovirus-infected Sf9 insect cells
T1 sequence (Q92794 194-810): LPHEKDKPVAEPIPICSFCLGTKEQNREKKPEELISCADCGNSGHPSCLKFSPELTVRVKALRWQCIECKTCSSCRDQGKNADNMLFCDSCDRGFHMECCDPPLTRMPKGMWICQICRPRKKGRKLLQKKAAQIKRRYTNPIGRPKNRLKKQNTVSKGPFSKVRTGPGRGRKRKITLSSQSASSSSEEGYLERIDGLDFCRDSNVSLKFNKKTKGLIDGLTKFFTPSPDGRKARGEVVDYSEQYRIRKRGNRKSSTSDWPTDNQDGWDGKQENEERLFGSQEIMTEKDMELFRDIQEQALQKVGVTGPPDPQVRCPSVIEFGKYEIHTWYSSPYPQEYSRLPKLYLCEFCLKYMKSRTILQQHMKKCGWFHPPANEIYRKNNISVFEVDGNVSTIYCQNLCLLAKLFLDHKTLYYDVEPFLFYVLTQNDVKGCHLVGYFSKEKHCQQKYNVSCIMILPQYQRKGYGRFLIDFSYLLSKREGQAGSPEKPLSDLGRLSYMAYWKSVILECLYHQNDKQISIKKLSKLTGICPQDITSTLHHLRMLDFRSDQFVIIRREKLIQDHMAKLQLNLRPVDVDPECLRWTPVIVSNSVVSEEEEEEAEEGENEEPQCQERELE
Procedure, shortened: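 His-tagged human Kat6a (aa 194-810, Sf9-expressed) with compound (0.01-20 μM) for 60 min at 22° C., pH 8 Tris buffer, 220 nM biotinylated H4 peptide (aa 1-24) and 600 nM acetyl-CoA. Acetyl-K8 detected by Eu-antibody/SA-XL665 TR-FRET (665/620 nm ratio); IC50 from 4-parameter fit.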

KAT6B = target: T2, KAT6B (Homo sapiens, UniProt Q8WYB5); test: Kat6b activity assay (TR-FRET, acetylation of biotinylated histone H4 peptide); format: biochemical; details: recombinant human GST-tagged Kat6b (431-end), 30 mins at 22° C., read-out: KAT6B activity assay IC50 [mol/l] (arithmetic mean)
T2 construct: fused on or other part: N-terminal GST tag
T2 sequence (Q8WYB5 723-2073 limits assumed): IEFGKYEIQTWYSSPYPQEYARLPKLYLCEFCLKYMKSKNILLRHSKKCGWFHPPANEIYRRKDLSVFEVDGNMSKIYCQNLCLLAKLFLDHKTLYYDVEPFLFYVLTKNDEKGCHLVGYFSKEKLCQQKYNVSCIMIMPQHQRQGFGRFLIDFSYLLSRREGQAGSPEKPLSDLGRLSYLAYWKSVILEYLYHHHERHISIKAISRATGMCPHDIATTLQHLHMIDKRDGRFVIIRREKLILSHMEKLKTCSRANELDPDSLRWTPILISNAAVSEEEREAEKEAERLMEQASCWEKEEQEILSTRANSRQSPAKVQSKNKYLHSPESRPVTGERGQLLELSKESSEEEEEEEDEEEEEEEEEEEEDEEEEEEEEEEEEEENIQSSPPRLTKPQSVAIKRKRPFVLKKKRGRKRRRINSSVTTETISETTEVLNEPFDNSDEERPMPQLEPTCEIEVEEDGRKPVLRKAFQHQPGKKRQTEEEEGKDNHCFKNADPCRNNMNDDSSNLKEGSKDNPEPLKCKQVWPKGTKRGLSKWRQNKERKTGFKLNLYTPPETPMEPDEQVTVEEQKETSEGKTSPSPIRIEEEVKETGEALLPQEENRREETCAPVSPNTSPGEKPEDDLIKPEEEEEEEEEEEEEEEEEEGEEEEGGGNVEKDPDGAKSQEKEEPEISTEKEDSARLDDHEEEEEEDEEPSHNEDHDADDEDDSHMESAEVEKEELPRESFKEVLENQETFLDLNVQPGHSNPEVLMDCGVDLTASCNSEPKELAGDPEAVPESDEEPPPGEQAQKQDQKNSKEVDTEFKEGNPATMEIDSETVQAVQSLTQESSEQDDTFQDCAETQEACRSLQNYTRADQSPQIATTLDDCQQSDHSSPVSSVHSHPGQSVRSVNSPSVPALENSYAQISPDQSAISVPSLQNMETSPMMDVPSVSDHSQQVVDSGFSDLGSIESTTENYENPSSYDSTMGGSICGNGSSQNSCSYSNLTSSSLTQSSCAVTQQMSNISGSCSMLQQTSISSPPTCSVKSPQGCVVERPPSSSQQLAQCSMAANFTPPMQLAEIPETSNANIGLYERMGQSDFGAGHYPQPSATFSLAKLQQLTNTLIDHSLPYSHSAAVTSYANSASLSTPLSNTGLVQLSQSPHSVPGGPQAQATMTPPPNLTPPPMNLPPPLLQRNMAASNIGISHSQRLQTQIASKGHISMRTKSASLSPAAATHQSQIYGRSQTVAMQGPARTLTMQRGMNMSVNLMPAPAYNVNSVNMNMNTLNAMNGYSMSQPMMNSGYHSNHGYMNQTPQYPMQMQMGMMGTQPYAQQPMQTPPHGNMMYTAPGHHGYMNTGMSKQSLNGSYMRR
From the text: Kat6b inhibitory activities of the compounds described in the present invention were quantified using a Fluorescence Resonance Energy Transfer (TR-FRET) assay which measures acetylation of a synthetic, biotinylated Histone-H4-derived peptide by the enzyme.
Recombinant human GST-tagged Kat6b protein (431-end, N-terminal GST-tag), purified from Baculovirus-infected insect cells (Sf9), was purchased from SignalChem (#K315-381BG). Histone H4 peptide (amino acids 1-24, […]-VLRD-K(Btn)-amide), which was used as substrate, was synthesized by Biosyntan GmbH, Berlin, Germany. Acetyl Coenzyme A was purchased from Sigma-Aldrich (#A-2056).
Kat6b was incubated for 30 mins at 22° C. in the presence of different concentrations of test substances (0 μM, and within the range 0.01-20 μM) in assay buffer [25 mM Tris/HCl pH 8, 1 mM EGTA, 2.5 mM Glutathion, 0.02% Chicken Albumin, 0.05% Pluronic F127, 25 mM NaCl, 500 nM H4 peptide and 600 nM Acetyl Coenzyme A].
The reaction was stopped by addition of Detection Solution (25 mM HEPES pH 7.5, 0.1% BSA, 22 nM SAXL665 (Cisbio #610SAXLE), 100 μM Anacardic Acid (Enzo #ALX-270-381), 1 nM Anti-Histone H4 (ACETYL K8) Antibody (ABCAM #AB15823), 0.5 nM Anti-Rabbit IgG Eu (Perkin Elmer #AD0083).
The fluorescence emission at 620 nm and 665 nm after excitation at 330-350 nm was measured in a TR-FRET measuring instrument, for instance a Rubystar or a Pherastar (both from BMG Lab Technologies, Offenburg, Germany) or a Viewlux (Perkin-Elmer). The ratio of the emission at 665 nm and at […] was used as indicator of the amount of acetylated peptide.
The resulting data (ratio) were normalized, taking 0% inhibition as the mean value of control measurements where all reagents were included. In this case 50 nl DMSO were used instead of compounds. […] IC50 values were determined by regression analysis based on a 4 parameter equation (minimum, maximum, ICM, Hill; Y=Max+(Min−Max)/(1+(X/ICso) Hill) using the Screener Software (Genedata).

[1] = test system: ESR1 transcription in MVLN cells; test: Repression of ESR1 transcription, MVLN luciferase reporter assay; format: cell-based; details: Homo sapiens, luciferase signal after 24 h, read-out: MVLN reporter assay, IC50[M] (arithmetic mean)
Procedure, shortened: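 MVLN cells stably carry an ER-responsive vitellogenin A2 element driving luciferase. After 24 h of compound treatment, luciferase was read in lysate as the measure of ERα transcription. Alamar Blue fluorescence (530/590 nm, 2 h) was read first to control for cell loss; samples were run in duplicate.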

ZR-75-1 cells = test: Proliferation assay in ZR-75-1 cells; format: cell-based; details: Homo sapiens, 144 h, Alamar Blue, read-out: ZR75-1 proliferation assay, EC50[M] (arithmetic mean)
From the text: (§1) For compound characterization cell survival assays were routinely run in two cell lines. ZR-75-1 is a breast carcinoma cell line containing a focal KAT6A amplification and high KAT6A protein expression. Proliferation of this cell line is inhibited upon treatment with KAT6A inhibitors. As a negative control cell line MDA-MB-436 were used. These cells carry a […] deletion of the KAT6A gene, have a low KAT6A protein expression and are not growth inhibited upon treatment with KAT6A inhibitors.
(§2) For measurements cell lines were plated at the below indicated concentration per […] in 96-well plates in a humidified incubator at 37° C. and 5% CO2.
(§3) ZR-75-1 (ATCC, CRL-1500; breast carcinoma); 3000 cells per well; culture medium: RPMI 1640 (Biochrom #FG 1215) medium containing 2.5% FBS (Biochrom #S0615). LCLC-97TM1 (DSMZ, ACC 388; large cell lung carcinoma); 6000 cells per well; culture medium: RPMI 1640 (Biochrom #FG 1215) medium containing 2.5% FBS (Biochrom #S0615). MDA-MB-436 (CLS, 300278; breast adenocarcinoma); 3000 cells per well; culture medium: DMEM/Ham's F12 (Biochrom #FG 4815) medium containing 2.5% FBS (Biochrom #S0615).
(§4) Each sample was prepared as triplicate and rim wells were excluded. Plates were incubated at 37° C. and 5% CO2 for 144 h. Cell viability was measured by adding 10 μL of Alamar Blue Reagent (Invitrogen #DAL 1100) and plates were incubated for 2 h at 37° C. and 5% CO2. Fluorescence was measured at 590 nm wavelength with a Tecan Spark or Victor X3 MTP-Reader (PerkinElmer).

MDA-MB-436 cells = test: Proliferation assay in MDA-MB-436 cells (negative control cell line); format: cell-based; details: Homo sapiens, 144 h, Alamar Blue, read-out: MDA-MB-436 proliferation assay, EC50[M] (arithmetic mean)
From the text: as §1, §2, §3, §4

LCLC-97TM1 cells = test: Proliferation assay in LCLC-97TM1 cells; format: cell-based; details: Homo sapiens, 144 h, Alamar Blue, read-out: LCLC97TM1 proliferation assay, EC50[M] (arithmetic mean)
Method: as §2, §3, §4

[2] = test system: Salmonella tester strain TA98; test: Bacterial reverse gene mutation test Ames MPF Penta I, TA98; format: cell-based
From the text: (§5) The employed commercial assay Ames MPF Penta I comprises the histidine auxotrophic Salmonella tester strains TA98, TA100, TA1535, TA1537 and two tryptophan auxotrophic tester strains E. coli wp2 (E. coli wp2 [pKM101] and E. coli wp2 uvrA, combined exposure). These strains meet the requirements of the OECD guideline 471 for testing chemicals.
(§6) Bacterial strains were exposed to various concentrations of the test compounds in a histidine (His) or tryptophane (Trp) deficient medium. As recommended by ICH S2(R1) guideline, the test was conducted in two assay conditions, with and without addition of microsomal enzymes (S9 mix), taking the potential formation of DNA reactive metabolites via xenobiotic biotransformation into account.
(§7) The potential of the test compound to induce gene mutations is assessed by comparing the control with the test compounds treated bacterial cultures.

[3] = test system: Salmonella tester strain TA100; test: Bacterial reverse gene mutation test Ames MPF Penta I, TA100; format: cell-based
From the text: as §5, §6, §7

[4] = test system: Salmonella tester strain TA1535; test: Bacterial reverse gene mutation test Ames MPF Penta I, TA1535; format: cell-based
From the text: as §5, §6, §7

[5] = test system: Salmonella tester strain TA1537; test: Bacterial reverse gene mutation test Ames MPF Penta I, TA1537; format: cell-based
From the text: as §5, §6, §7

[6] = test system: E. coli wp2 (E. coli wp2 [pKM101] and E. coli wp2 uvrA, combined exposure); test: Bacterial reverse gene mutation test Ames MPF Penta I, E. coli wp2; format: cell-based
From the text: as §5, §6, §7

Cc1cc(C)c2cc(C(=O)NS(=O)(=O)c3ccccc3-c3ccccc3)oc2c1 [Example 9, N-([1,1′-biphenyl]-2-sulfonyl)-4,6-dimethyl-1-benzofuran-2-carboxamide]
pIC50 (KAT6A): 7.04 | pIC50 (KAT6B): 6.66 | IC50 [1]: 2.5e-06 M | EC50 (ZR-75-1 cells): 1.81e-05 M | EC50 (MDA-MB-436 cells): > 2e-05 M

CC(C)c1ccc2cc(C(=O)NS(=O)(=O)c3ccccc3Cl)oc2c1 [Example 73, N-(2-chlorobenzenesulfonyl)-6-(propan-2-yl)-1-benzofuran-2-carboxamide]
pIC50 (KAT6A): 5.87 | pIC50 (KAT6B): 5.75 | IC50 [1]: 8.69e-06 M | EC50 (ZR-75-1 cells): 7.08e-06 M | EC50 (LCLC-97TM1 cells): > 2e-05 M | EC50 (MDA-MB-436 cells): > 2e-05 M

COc1cc(C)cc2oc(C(=O)NS(=O)(=O)c3ccccc3-c3ccccc3)cc12 [Example 10, N-([1,1′-biphenyl]-2-sulfonyl)-4-methoxy-6-methyl-1-benzofuran-2-carboxamide]
pIC50 (KAT6A): 6.03 | pIC50 (KAT6B): 5.95 | IC50 [1]: 1e-05 M | EC50 (ZR-75-1 cells): 1.39e-05 M | EC50 (MDA-MB-436 cells): > 2e-05 M

Cc1ccc2cc(C(=O)NS(=O)(=O)c3ccccc3-c3ccccc3)oc2c1 [Example 2, N-([1,1′-biphenyl]-2-sulfonyl)-6-methyl-1-benzofuran-2-carboxamide]
pIC50 (KAT6A): 6.05 | pIC50 (KAT6B): 5.65 | IC50 [1]: 1.11e-05 M | EC50 (ZR-75-1 cells): > 2e-05 M | EC50 (MDA-MB-436 cells): > 2e-05 M

Cc1cc(C)c2cc(C(=O)NS(=O)(=O)c3ccccc3-c3ccccc3C)oc2c1 [Example 6, 4,6-Dimethyl-N-(2′-methyl[1,1′-biphenyl]-2-sulfonyl)-1-benzofuran-2-carboxamide]
pIC50 (KAT6A): 6.89 | pIC50 (KAT6B): 6.61 | IC50 [1]: 5.55e-06 M | EC50 (ZR-75-1 cells): > 2e-05 M | EC50 (MDA-MB-436 cells): > 2e-05 M

Cc1cc(C)c2cc(C(=O)NS(=O)(=O)c3cccc4ccc(C)nc34)oc2c1 [Example 21, 4,6-Dimethyl-N-(2-methylquinoline-8-sulfonyl)-1-benzofuran-2-carboxamide]
pIC50 (KAT6A): 7.57 | pIC50 (KAT6B): 7.27 | IC50 [1]: 1.17e-06 M | EC50 (ZR-75-1 cells): 1.61e-06 M | EC50 (LCLC-97TM1 cells): 3.47e-06 M | EC50 (MDA-MB-436 cells): > 2e-05 M

CC(C)c1ccc2cc(C(=O)NS(=O)(=O)c3ccccc3)oc2c1 [Example 56, N-(Benzenesulfonyl)-6-(propan-2-yl)-1-benzofuran-2-carboxamide]
pIC50 (KAT6A): 5.81 | pIC50 (KAT6B): 5.40 | IC50 [1]: 1.52e-05 M | EC50 (ZR-75-1 cells): > 2e-05 M | EC50 (MDA-MB-436 cells): > 2e-05 M

Cc1ccc(S(=O)(=O)NC(=O)c2cc3c(C)cc(C)cc3o2)c(-c2ccccc2)c1 [Example 7, 4,6-Dimethyl-N-(5-methyl[1,1′-biphenyl]-2-sulfonyl)-1-benzofuran-2-carboxamide]
pIC50 (KAT6A): 7.06 | pIC50 (KAT6B): 6.94 | IC50 [1]: 4.54e-06 M | EC50 (ZR-75-1 cells): > 2e-05 M | EC50 (MDA-MB-436 cells): > 2e-05 M

CCOc1ccccc1S(=O)(=O)NC(=O)c1cc2c(F)cc(C3CC3)cc2o1 [Example 25, 6-Cyclopropyl-N-(2-ethoxybenzene-1-sulfonyl)-4-fluoro-1-benzofuran-2-carboxamide]
pIC50 (KAT6B): 7.55 | IC50 [1]: 5.42e-07 M | EC50 (ZR-75-1 cells): 6.44e-07 M | EC50 (LCLC-97TM1 cells): > 2e-05 M | EC50 (MDA-MB-436 cells): > 2e-05 M | Result of the bacterial reverse gene mutation test Ames MPF Penta I, TA98 ([2]; with addition of S9 mix): negative | Result of the bacterial reverse gene mutation test Ames MPF Penta I, TA98 ([2]; without addition of S9 mix): negative | Result of the bacterial reverse gene mutation test Ames MPF Penta I, TA100 ([3]; with addition of S9 mix): negative | Result of the bacterial reverse gene mutation test Ames MPF Penta I, TA100 ([3]; without addition of S9 mix): negative | Result of the bacterial reverse gene mutation test Ames MPF Penta I, TA1535 ([4]; with addition of S9 mix): negative | Result of the bacterial reverse gene mutation test Ames MPF Penta I, TA1535 ([4]; without addition of S9 mix): negative | Result of the bacterial reverse gene mutation test Ames MPF Penta I, TA1537 ([5]; with addition of S9 mix): negative | Result of the bacterial reverse gene mutation test Ames MPF Penta I, TA1537 ([5]; without addition of S9 mix): negative | Result of the bacterial reverse gene mutation test Ames MPF Penta I, E. coli wp2 ([6]; with addition of S9 mix): negative | Result of the bacterial reverse gene mutation test Ames MPF Penta I, E. coli wp2 ([6]; without addition of S9 mix): negative

Cc1cc(C)c2cc(C(=O)NS(=O)(=O)c3ccccc3-c3cccc(Cl)c3)oc2c1 [Example 11, N-(3′-chloro[1,1′-biphenyl]-2-sulfonyl)-4,6-dimethyl-1-benzofuran-2-carboxamide]
pIC50 (KAT6A): 7.20 | pIC50 (KAT6B): 6.52 | IC50 [1]: 5.85e-06 M | EC50 (ZR-75-1 cells): 1.17e-05 M | EC50 (MDA-MB-436 cells): 1.42e-05 M

CC(C)c1ccc2cc(C(=O)NS(=O)(=O)c3ccccc3-c3ccccc3)oc2c1 [Example 54, N-{[1,1′-Biphenyl]-2-sulfonyl}-6-(propan-2-yl)-1-benzofuran-2-carboxamide]
pIC50 (KAT6A): 6.33 | pIC50 (KAT6B): 6.18 | IC50 [1]: 3.02e-06 M | EC50 (ZR-75-1 cells): 5.75e-06 M | EC50 (LCLC-97TM1 cells): > 2e-05 M | EC50 (MDA-MB-436 cells): > 2e-05 M

COc1cc(C)cc2oc(C(=O)NS(=O)(=O)c3ccc(C)cc3-c3ccccc3)cc12 [Example 12, 4-Methoxy-6-methyl-N-(5-methyl[1,1′-biphenyl]-2-sulfonyl)-1-benzofuran-2-carboxamide]
pIC50 (KAT6A): 6.40 | pIC50 (KAT6B): 6.43 | IC50 [1]: 6.05e-06 M | EC50 (ZR-75-1 cells): 1.03e-05 M | EC50 (MDA-MB-436 cells): > 2e-05 M
